Measurements: PMC9512014 (Journal of Medicinal Chemistry, 2022)

How the values were obtained:
[1] = target: T1, HDAC4 (Homo sapiens, UniProt P56524); assay: HDAC4 degradation by western blot in Jurkat E6-1 cells; type: cell-based; conditions: Jurkat E6-1, 24 h; for hook effect: immunoblot, at 10 μM
Target sequence in this assay (P56524 whole entry): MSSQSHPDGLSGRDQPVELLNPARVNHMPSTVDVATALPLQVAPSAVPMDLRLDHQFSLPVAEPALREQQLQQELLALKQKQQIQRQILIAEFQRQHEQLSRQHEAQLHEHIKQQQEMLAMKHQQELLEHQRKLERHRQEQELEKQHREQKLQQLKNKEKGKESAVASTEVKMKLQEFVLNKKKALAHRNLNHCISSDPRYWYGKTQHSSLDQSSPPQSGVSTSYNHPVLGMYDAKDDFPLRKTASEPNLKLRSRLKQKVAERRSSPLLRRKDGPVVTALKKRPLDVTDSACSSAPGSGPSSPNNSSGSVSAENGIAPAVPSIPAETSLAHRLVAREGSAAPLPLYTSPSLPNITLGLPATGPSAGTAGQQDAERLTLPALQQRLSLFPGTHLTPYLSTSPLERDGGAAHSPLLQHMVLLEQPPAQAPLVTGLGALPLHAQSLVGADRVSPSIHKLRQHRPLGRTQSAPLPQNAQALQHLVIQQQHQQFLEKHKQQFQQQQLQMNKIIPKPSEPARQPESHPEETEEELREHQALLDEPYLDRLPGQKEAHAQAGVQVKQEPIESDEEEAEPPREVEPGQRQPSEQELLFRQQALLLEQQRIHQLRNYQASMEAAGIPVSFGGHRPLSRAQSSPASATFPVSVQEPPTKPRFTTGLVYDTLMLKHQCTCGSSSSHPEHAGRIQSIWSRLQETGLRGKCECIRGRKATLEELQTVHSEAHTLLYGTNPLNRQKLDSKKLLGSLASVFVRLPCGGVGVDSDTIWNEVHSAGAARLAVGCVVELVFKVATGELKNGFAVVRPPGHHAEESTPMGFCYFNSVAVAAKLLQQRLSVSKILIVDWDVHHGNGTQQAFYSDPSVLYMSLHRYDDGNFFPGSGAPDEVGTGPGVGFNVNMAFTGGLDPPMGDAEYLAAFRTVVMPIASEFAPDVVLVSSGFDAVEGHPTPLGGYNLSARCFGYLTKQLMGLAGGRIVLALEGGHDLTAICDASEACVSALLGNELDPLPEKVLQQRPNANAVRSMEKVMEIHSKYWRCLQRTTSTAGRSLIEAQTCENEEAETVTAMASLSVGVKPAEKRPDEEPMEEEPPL

[2] = target: HDAC1 (Homo sapiens, UniProt Q13547); assay: Multiplexed selectivity western blot in Jurkat cells, HDAC1; type: cell-based; conditions: Jurkat E6-1, 24 h, concentration response
[3] = target: HDAC3 (Homo sapiens, UniProt O15379); assay: Multiplexed selectivity western blot in Jurkat cells, HDAC3; type: cell-based; conditions: Jurkat E6-1, 24 h, concentration response up to 10 μM
Sequence of HDAC3 (O15379 whole entry): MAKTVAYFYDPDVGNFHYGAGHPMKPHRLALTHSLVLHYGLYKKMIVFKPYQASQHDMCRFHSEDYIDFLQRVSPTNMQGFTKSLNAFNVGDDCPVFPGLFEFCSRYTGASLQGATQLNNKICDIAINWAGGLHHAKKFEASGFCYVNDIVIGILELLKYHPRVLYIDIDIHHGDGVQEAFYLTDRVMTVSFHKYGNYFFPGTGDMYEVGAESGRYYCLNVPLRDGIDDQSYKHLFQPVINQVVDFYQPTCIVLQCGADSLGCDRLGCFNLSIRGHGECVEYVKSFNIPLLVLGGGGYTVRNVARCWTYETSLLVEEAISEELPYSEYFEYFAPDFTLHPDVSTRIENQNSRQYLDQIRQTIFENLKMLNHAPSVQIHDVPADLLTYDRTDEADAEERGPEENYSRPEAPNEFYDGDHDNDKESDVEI

[4] = target: HDAC5 (Homo sapiens, UniProt Q9UQL6); assay: Multiplexed selectivity western blot in Jurkat cells, HDAC5; type: cell-based; conditions: Jurkat E6-1, 24 h, concentration response
Sequence of HDAC5 (Q9UQL6 whole entry): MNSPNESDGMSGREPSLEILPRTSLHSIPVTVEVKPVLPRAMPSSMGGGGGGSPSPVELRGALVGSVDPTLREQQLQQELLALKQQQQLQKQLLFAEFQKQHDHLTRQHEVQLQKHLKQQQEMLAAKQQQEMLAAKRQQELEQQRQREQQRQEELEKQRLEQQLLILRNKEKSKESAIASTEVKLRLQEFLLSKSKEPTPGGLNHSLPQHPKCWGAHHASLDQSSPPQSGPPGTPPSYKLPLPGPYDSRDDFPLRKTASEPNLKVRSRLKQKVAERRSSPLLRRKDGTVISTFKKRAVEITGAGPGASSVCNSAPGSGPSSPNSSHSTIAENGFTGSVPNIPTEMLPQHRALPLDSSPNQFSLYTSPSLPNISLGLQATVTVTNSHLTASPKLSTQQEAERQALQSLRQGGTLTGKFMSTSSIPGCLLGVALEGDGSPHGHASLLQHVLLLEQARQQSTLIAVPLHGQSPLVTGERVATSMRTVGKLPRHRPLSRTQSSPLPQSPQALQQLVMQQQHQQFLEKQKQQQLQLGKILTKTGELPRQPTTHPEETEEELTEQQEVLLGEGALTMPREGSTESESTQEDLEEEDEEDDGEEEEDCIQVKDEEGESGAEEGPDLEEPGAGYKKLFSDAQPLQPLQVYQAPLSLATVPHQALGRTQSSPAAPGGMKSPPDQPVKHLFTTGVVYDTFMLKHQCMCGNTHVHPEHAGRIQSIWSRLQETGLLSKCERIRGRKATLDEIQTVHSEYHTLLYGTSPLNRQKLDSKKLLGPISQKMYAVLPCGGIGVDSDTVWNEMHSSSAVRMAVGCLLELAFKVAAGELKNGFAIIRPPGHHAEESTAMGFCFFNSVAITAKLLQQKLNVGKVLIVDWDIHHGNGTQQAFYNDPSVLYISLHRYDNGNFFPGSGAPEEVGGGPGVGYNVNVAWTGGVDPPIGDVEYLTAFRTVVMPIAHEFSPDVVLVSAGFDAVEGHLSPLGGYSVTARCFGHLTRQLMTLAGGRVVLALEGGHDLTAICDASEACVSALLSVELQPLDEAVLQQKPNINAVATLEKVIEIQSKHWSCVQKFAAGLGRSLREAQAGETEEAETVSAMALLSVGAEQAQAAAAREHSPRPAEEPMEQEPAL

[5] = target: T2, HDAC7 (Homo sapiens, UniProt Q8WUI4); assay: Multiplexed selectivity western blot in Jurkat cells, HDAC7; type: cell-based; conditions: Jurkat E6-1, 24 h, concentration response
T2 sequence (Q8WUI4 1-952): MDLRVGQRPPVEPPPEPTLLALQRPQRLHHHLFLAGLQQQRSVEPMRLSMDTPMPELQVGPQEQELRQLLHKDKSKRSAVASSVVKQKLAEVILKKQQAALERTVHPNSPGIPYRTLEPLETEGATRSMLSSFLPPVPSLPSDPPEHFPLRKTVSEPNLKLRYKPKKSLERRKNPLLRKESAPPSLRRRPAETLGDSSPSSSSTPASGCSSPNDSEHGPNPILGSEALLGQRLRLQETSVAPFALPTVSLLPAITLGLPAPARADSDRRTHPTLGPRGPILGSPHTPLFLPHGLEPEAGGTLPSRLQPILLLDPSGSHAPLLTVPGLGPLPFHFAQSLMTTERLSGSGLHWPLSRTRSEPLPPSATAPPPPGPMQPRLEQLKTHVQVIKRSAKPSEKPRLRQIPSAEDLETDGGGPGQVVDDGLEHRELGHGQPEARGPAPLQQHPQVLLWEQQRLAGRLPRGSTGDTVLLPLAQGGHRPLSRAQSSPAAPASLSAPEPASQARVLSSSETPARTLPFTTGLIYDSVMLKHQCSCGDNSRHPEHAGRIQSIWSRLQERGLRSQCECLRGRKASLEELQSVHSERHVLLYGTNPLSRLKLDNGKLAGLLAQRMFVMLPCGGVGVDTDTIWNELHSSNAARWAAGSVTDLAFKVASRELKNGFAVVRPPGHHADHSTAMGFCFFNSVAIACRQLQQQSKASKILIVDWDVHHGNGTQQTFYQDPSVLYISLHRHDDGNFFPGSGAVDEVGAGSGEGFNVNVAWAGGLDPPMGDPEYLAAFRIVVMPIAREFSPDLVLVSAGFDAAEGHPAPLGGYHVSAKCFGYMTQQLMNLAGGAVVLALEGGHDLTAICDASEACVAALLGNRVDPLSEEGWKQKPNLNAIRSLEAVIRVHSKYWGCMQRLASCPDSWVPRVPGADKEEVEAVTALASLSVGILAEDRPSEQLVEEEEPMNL

[6] = target: HDAC9 (Homo sapiens, UniProt Q9UKV0); assay: Multiplexed selectivity western blot in Jurkat cells, HDAC9; type: cell-based; conditions: Jurkat E6-1, 24 h, concentration response
Sequence of HDAC9 (Q9UKV0 whole entry): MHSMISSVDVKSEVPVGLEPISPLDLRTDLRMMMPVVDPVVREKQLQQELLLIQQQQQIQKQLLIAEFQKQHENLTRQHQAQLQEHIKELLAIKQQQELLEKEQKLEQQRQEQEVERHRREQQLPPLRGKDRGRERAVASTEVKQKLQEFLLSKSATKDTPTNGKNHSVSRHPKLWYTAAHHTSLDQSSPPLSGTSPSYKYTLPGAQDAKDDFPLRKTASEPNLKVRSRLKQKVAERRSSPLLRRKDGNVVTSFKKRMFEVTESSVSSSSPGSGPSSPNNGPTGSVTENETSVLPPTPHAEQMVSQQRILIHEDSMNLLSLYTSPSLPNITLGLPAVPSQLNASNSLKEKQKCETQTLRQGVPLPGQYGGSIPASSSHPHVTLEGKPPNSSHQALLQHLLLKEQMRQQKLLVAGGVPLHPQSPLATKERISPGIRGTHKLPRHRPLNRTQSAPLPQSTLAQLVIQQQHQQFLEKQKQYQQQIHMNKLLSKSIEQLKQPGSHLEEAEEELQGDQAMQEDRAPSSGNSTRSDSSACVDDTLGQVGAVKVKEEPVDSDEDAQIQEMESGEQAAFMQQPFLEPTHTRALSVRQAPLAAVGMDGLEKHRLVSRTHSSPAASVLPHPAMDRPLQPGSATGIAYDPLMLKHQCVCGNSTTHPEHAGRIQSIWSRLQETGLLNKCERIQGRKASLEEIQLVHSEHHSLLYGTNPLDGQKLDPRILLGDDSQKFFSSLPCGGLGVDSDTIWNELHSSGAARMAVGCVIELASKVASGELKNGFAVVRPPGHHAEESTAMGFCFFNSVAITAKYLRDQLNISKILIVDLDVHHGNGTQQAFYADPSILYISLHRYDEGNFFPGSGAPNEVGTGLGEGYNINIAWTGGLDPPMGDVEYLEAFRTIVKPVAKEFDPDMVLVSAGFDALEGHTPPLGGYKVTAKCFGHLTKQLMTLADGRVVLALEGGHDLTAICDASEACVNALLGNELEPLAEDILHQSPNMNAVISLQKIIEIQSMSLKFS

[7] = target: T1, HDAC4; type: cell-based; conditions: Jurkat E6-1, 6 h; compound 7 at 1 μM, compound 11 at 100 nM
Target sequence in this assay (P56524 whole entry): as the sequence (P56524 whole entry) above

[8] = system: class I HDAC; conditions: read-out: HDAC cellular IC50 class I; Jurkat E6.1, treated for 24 h; substrate Boc-Lys(Ac)AMC
[9] = target: T1, HDAC4; assay: Recombinant HDAC4 enzymatic inhibition assay; conditions: HDAC enzymatic activity assays
Target sequence in this assay (P56524 655-1084 limits assumed): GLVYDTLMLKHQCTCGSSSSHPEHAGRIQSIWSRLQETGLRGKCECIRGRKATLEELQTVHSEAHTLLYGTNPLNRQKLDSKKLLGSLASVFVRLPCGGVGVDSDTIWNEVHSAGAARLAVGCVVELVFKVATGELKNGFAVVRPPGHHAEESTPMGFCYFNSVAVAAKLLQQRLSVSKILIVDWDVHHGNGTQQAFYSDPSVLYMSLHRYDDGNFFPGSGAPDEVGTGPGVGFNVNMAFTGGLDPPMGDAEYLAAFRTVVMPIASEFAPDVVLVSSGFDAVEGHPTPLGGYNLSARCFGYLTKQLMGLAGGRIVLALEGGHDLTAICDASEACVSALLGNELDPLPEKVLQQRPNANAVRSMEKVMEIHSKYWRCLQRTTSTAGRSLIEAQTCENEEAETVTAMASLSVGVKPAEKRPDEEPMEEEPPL

[10] = target: HDAC4 (Mus musculus, UniProt Q6NZM9); conditions: R6/2 mice, chronic administration; cited from earlier work
[11] = system: aggregate load; conditions: R6/2 mice, chronic administration, cortex and brain stem; cited from earlier work

Sequence of HDAC1 (Q13547 whole entry): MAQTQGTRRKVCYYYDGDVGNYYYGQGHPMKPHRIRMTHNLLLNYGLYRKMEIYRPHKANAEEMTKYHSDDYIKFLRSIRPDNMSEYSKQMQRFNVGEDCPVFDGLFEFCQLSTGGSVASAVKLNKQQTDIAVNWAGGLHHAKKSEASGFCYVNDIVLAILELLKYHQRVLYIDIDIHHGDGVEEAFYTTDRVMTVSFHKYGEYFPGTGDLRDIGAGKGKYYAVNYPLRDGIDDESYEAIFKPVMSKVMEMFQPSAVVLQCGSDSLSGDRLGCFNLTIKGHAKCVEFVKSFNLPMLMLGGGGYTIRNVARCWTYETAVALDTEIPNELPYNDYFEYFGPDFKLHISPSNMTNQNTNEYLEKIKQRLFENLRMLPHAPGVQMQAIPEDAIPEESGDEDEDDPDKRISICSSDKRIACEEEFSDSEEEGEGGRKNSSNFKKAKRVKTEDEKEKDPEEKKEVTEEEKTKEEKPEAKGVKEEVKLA

Cc1ncsc1-c1ccc(CNC(=O)[C@@H]2C[C@@H](O)CN2C(=O)[C@@H](NC(=O)COCCOCCOCCOCCOCC(F)(F)c2cnc(-c3ccc(C(C(=O)NO)c4ccccc4F)cc3)nc2)C(C)(C)C)cc1 (stereo partly drawn) [Compound 7, (2S,4R)-1-((2S)-2-(tert-Butyl)-20,20-difluoro-20-(2-(4-(1-(2-fluorophenyl)-2-(hydroxyamino)-2-oxoethyl)phenyl)pyrimidin-5-yl)-4-oxo-6,9,12,15,18-pentaoxa-3-azaicosan-1-oyl)-4-hydroxy-N-(4-(4-methylthiazol-5-yl)benzyl)pyrrolidine-2-carboxamide]
hook effect [1]: hook effect was observed | degradation of HDAC1 by western blot [2]: neither compound demonstrated degradation | degradation of HDAC3 by western blot [3]: No concentration-dependent reduction in immunoreactivity | degradation of HDAC5 by western blot [4]: neither compound demonstrated degradation | degradation of HDAC7 by western blot [5]: neither compound demonstrated degradation | degradation of HDAC9 by western blot [6]: neither compound demonstrated degradation | HDAC4 degradation in the presence of 1 μM proteasome inhibitors MG132 or carfilzomib [7]: HDAC4 degradation was prevented | IC50 [8]: > 5 µM | higher inhibition of HDAC5, HDAC7, and HDAC9 compared to HDAC4 [9]: 3- to 4 fold

CCCN(CCCCOCCOCCOCCOCCOCC(=O)N[C@H](C(=O)N1C[C@H](O)C[C@H]1C(=O)NCc1ccc(-c2scnc2C)cc1)C(C)(C)C)C[C@@H](C)NC(=O)c1ccc(-c2noc(C(F)(F)F)n2)cc1 [Compound 11, (2S,4R)-1-((3R,26S)-26-(tert-Butyl)-3-methyl-1,24-dioxo-5-propyl-1-(4-(5-trifluoromethyl-1,2,4-oxadiazol-3-yl)phenyl)-10,13,16,19,22-pentaoxa-2,5,25-triazaheptacosan-27-oyl)-4-hydroxy-N-(4-(4-methylthiazol-5-yl)benzyl)pyrrolidine-2-carboxamide]
hook effect [1]: hook effect was not observed | degradation of HDAC1 by western blot [2]: neither compound demonstrated degradation | degradation of HDAC3 by western blot [3]: showed HDAC3 degradation at the highest dose of 10 μM | degradation of HDAC5 by western blot [4]: neither compound demonstrated degradation | degradation of HDAC7 by western blot [5]: neither compound demonstrated degradation | degradation of HDAC9 by western blot [6]: neither compound demonstrated degradation | HDAC4 degradation in the presence of 1 μM proteasome inhibitors MG132 or carfilzomib [7]: same effect was observed | IC50 [8]: > 5 µM

O=C(CCCCCCC(=O)Nc1ccccc1)NO [SAHA, suberoylanilide hydroxamic acid]
level of HDAC4 protein in the cortex and brain stem [10]: reduction in the level of HDAC4 protein | aggregate load in the same brain regions [11]: decrease in aggregate load

CCCN(CCCCOCCOCCOCCOCCOCC(=O)N[C@@H](C(=O)N1C[C@@H](O)C[C@@H]1C(=O)NCc1ccc(-c2scnc2C)cc1)C(C)(C)C)C[C@@H](C)NC(=O)c1ccc(-c2noc(C(F)(F)F)n2)cc1 [Compound 12, (2R,4S)-1-((3R,26R)-26-(tert-Butyl)-3-methyl-1,24-dioxo-5-propyl-1-(4-(5-trifluoromethyl-1,2,4-oxadiazol-3-yl)phenyl)-10,13,16,19,22-pentaoxa-2,5,25-triazaheptacosan-27-oyl)-4-hydroxy-N-(4-(4-methylthiazol-5-yl)benzyl)pyrrolidine-2-carboxamide]
HDAC4 degradation at 10 μM by immunoblot [1]: did not induce HDAC4 degradation | IC50 [8]: > 5 µM

Cc1ncsc1-c1ccc(CNC(=O)[C@@H]2C[C@H](O)CN2C(=O)[C@@H](NC(=O)COCCOCCOCCOCCOCC(F)(F)c2cnc(-c3ccc(C(C(=O)NO)c4ccccc4F)cc3)nc2)C(C)(C)C)cc1 (stereo partly drawn) [Compound 8, (2S,4S)-1-((2S)-2-(tert-Butyl)-20,20-difluoro-20-(2-(4-(1-(2-fluorophenyl)-2-(hydroxyamino)-2-oxoethyl)phenyl)pyrimidin-5-yl)-4-oxo-6,9,12,15,18-pentaoxa-3-azaicosanoyl)-4-hydroxy-N-(4-(4-methylthiazol-5-yl)benzyl)pyrrolidine-2-carboxamide]
HDAC4 degradation at 10 μM by immunoblot [1]: did not induce HDAC4 degradation | IC50 [8]: > 5 µM
